Test results taken from publication PMC7043280 (European journal of medicinal chemistry, 2018).

Columns and labels:
[1] = tested on: GluN1/GluN2A-D diheteromeric NMDARs; conditions: cited from earlier work
NMDAR = conditions: cited from earlier work; for NMDAR agonist activity or effect on the holding current: ref Saptoka et al., 2017
[2] = tested on: GluN1/GluN2A-D diheteromeric NMDARs; assay: TEVC electrophysiology, values stated in the text across several GluN2 subtypes; format: cell-based, rat
GluN1/GluN2A NMDAR [3] = molecular target: T1, GluN1/GluN2A NMDAR (Rattus norvegicus, UniProt P35439+Q00959); assay: TEVC electrophysiology on recombinant NMDA receptors; format: cell-based
T1 sequence (Q00959 23-1464, other chains not shown): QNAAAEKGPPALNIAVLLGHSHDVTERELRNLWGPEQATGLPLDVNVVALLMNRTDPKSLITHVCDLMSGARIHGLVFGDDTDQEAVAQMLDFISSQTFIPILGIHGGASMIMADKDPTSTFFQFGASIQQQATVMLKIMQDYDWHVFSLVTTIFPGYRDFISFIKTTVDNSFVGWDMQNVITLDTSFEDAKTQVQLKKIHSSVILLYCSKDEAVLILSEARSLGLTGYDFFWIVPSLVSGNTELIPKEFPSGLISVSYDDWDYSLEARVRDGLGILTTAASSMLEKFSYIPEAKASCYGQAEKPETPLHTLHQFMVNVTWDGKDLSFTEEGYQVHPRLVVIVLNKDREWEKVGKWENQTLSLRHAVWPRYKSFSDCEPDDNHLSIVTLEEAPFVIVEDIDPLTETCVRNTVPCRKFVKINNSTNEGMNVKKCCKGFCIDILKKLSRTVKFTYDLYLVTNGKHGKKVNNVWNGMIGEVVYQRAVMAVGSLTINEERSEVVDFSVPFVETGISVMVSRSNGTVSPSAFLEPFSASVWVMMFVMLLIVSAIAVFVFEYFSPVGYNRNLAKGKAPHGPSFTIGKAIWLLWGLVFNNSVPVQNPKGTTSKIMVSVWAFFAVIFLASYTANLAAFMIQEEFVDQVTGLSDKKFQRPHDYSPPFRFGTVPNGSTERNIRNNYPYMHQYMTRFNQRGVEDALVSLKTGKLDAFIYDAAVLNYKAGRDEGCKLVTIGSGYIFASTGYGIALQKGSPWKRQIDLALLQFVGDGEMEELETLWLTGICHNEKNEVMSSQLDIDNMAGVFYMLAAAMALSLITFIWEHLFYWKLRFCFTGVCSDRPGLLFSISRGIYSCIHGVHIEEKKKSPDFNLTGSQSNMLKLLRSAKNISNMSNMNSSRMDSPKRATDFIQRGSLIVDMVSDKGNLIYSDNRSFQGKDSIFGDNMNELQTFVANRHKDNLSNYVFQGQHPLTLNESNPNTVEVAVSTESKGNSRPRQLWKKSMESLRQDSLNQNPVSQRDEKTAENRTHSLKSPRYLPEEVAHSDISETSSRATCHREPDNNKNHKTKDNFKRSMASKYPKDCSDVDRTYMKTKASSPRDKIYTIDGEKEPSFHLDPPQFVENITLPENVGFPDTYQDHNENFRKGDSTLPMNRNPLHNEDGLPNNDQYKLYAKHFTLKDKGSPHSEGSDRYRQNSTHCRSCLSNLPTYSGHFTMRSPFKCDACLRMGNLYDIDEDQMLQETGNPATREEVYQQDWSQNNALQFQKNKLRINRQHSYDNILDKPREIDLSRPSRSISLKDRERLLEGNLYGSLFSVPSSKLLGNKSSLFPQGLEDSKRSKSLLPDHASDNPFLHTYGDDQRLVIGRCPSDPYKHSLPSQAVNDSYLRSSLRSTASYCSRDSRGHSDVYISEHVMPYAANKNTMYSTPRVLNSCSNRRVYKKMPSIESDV

GluN1/GluN2A NMDAR [4] = molecular target: T1, GluN1/GluN2A NMDAR; conditions: ref 7a; cited from earlier work
GluN1/GluN2B NMDAR = GluN1/GluN2B NMDAR (Rattus norvegicus, UniProt P35439+Q00960); assay: TEVC electrophysiology on recombinant NMDA receptors; format: cell-based; conditions: for fold greater inhibitory activity on GluN2B compared to 7: from IC50 values, Table 6
Chain of GluN1/GluN2B NMDAR (Q00960 27-1482, other chains not shown): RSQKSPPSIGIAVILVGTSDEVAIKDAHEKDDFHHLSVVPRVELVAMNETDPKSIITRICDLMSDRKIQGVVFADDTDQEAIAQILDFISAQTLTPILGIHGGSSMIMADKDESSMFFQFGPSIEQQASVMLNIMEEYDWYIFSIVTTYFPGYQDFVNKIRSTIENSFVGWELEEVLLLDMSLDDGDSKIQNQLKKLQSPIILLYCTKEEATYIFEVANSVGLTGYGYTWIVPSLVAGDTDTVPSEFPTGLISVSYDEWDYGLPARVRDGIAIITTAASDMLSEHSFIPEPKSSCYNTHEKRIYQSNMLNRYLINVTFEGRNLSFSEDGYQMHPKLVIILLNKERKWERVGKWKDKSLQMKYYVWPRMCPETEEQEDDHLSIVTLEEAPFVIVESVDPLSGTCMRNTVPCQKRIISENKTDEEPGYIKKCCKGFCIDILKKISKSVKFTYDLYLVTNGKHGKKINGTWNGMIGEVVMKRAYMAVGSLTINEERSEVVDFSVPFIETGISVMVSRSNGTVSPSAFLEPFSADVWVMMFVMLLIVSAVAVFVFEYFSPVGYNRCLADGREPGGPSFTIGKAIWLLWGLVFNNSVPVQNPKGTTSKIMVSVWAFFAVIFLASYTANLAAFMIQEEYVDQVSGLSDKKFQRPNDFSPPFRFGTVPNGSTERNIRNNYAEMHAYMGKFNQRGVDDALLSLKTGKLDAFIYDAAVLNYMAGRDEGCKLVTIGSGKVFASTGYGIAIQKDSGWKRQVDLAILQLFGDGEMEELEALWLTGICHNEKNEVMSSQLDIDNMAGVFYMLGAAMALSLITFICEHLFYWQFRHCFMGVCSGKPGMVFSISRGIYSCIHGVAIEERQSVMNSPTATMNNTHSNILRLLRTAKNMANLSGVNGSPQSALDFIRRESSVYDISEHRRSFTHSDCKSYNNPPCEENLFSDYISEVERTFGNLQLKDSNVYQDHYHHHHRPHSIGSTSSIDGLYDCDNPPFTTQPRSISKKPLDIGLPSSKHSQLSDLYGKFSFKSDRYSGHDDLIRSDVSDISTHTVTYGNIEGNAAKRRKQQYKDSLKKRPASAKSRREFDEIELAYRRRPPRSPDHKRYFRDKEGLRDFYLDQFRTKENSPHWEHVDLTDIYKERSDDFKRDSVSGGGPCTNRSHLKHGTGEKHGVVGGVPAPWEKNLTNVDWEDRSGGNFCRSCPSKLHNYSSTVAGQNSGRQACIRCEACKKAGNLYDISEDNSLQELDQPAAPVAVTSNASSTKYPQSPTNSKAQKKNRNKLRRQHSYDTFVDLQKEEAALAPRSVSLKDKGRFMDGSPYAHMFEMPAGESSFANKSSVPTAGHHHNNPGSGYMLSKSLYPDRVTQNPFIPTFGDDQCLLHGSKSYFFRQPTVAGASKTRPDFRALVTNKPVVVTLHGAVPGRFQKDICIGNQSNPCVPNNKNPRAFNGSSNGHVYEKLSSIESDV

GluN1/GluN2C NMDAR = GluN1/GluN2C NMDAR (Rattus norvegicus, UniProt P35439+Q00961); assay: as above; format: cell-based; conditions: from IC50 values, Table 6
GluN1/GluN2D NMDAR = GluN1/GluN2D NMDAR (Rattus norvegicus, UniProt P35439+Q62645); assay: as above; format: cell-based; conditions: for percentage maximum inhibition of the agonist response, GluN2D: value in parenthesis, ± s.e.m., L-glutamate 10 μM and glycine 10 μM
Chain of GluN1/GluN2D NMDAR (Q62645 28-1323, other chains not shown): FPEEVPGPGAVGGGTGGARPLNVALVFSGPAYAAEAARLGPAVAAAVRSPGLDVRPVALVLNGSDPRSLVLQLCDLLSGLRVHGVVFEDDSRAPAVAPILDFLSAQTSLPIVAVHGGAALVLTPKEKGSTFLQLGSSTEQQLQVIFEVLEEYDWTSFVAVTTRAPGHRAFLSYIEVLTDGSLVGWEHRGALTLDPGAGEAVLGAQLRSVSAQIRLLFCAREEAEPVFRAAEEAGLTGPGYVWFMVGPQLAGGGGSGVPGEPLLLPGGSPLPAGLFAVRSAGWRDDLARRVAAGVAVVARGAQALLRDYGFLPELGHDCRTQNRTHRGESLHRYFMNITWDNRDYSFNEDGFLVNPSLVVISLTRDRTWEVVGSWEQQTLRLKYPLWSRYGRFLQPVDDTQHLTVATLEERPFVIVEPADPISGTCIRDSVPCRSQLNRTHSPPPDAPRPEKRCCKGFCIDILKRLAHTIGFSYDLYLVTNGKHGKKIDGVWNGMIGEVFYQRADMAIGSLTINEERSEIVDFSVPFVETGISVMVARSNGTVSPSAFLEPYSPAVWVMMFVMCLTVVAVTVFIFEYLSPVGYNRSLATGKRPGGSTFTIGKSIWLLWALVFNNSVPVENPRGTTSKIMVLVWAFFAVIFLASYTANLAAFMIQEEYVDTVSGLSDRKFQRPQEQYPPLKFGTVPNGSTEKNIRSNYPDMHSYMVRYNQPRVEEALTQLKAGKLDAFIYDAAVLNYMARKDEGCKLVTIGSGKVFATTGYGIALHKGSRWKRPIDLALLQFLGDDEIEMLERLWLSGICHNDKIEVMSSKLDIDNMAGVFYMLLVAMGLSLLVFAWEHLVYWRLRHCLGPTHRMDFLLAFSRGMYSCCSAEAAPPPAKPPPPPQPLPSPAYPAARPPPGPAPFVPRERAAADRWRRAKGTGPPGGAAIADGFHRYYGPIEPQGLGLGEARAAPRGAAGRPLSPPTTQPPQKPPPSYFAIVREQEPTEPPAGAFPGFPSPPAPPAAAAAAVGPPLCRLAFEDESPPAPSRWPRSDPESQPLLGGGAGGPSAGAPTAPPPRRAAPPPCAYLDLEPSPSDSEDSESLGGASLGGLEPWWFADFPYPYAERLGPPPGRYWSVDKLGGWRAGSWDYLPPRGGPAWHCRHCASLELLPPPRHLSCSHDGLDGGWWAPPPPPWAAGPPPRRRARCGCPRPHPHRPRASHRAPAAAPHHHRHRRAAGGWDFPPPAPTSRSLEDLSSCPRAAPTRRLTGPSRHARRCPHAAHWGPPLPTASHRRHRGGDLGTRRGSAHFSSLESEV

## O=C(O)c1cc2cc(-c3ccccc3)ccc2cc1O [Compound 7, reference compound]
[1]
  maximal inhibition of GluN2A and GluN2B: 57–72%
NMDAR
  glutamate-site or glycine-site NMDAR agonist activity; activity in the absence of agonists: did not display glutamate-site or glycine-site NMDAR agonist activity

## CC(C)C(=O)OCc1ccc2cc(C(=O)O)ccc2c1 [Compound 54, 6-((Isobutyryloxy)methyl)-2-naphthoic acid]
[2]; 100 μM
  inhibition on at least one of the GluN1/GluN2 subtypes: ≥ 50%

## CC(C)CCC(C)c1ccc2cc(C(=O)O)ccc2c1 (racemic) [Compound 46, (RS)-6-(5-Methylhexan-2-yl)-2-naphthoic acid]
NMDAR
  NMDAR agonist activity or effect on the holding current: no NMDAR agonist activity or effect on the holding current

## CCCc1ccc2cc(C(=O)O)ccc2c1 [6-n-propyl derivative]
[2]; 100 μM, range over GluN2A-D
  percentage inhibition on GluN2A-D: 0–14%

## CC(C)COCc1ccc2cc(C(=O)O)ccc2c1 [Compound 57, 6-(Isobutoxymethyl)-2-naphthoic acid]
[2]; 100 μM
  inhibition on at least one of the GluN1/GluN2 subtypes: ≥ 50%

## O=C(O)c1ccc2cc(I)c3ccccc3c2c1 [Compound 1, reference compound]
NMDAR
  glutamate-site or glycine-site NMDAR agonist activity; activity in the absence of agonists: did not display glutamate-site or glycine-site NMDAR agonist activity

## CCCCCc1ccc2cc(CC(=O)O)ccc2c1 [Compound 21, (6-n-Pent-1-ylnaphthalen-2-yl)acetic acid]
[2]; 100 μM
  inhibition on at least one of the GluN1/GluN2 subtypes: ≥ 50%

## O=C(O)c1ccc2cc(I)ccc2c1 [6-iodo-2-naphthoic acid]
GluN1/GluN2A NMDAR [3]; read-out: inhibition of the agonist response on GluN2A
  inhibition at 100 µM: 26 ± 2%
[2]; 100 μM, range over GluN2B-D
  inhibitory activity on GluN2B-D: 9–12%

## CC(C)CCCc1ccc2cc(C(=O)O)ccc2c1 [Compound 14b, 6-(4-Methylpent-1-yl)-2-naphthoic acid]
[2]; 100 μM
  potentiation across GluN2A-D: > 170%
[2]; read-out: EC50 values across GluN2A-D, range over GluN2A-D
  EC50: 28 to 37.2 µM
NMDAR
  NMDAR agonist activity or effect on the holding current: no NMDAR agonist activity or effect on the holding current

## O=C(O)c1cc2cc(Br)ccc2oc1=O [UBP608]
GluN1/GluN2A NMDAR [4]
  selectivity for GluN2A over GluN2D: 23 fold

## CCc1ccc2cc(C(=O)O)ccc2c1 [6-ethyl derivative]
[2]; 100 μM, range over GluN2A-D
  percentage inhibition on GluN2A-D: 17–52%

## O=C(O)c1cc2cc(/C=C/c3cccc([N+](=O)[O-])c3)ccc2cc1O [Compound 79i, (E)-3-Hydroxy-7-(3-nitrostyryl)-2-naphthoic acid]
GluN1/GluN2B NMDAR
  fold greater inhibitory activity on GluN2B compared to 7: 10 fold
GluN1/GluN2C NMDAR
  fold higher inhibitory activity on GluN2C compared to 7: 5 fold
GluN1/GluN2D NMDAR; from IC50 values, Table 6
  fold higher inhibitory activity on GluN2D compared to 7: 35 fold
GluN1/GluN2D NMDAR
  percentage maximum inhibition of the agonist response, GluN2D: 70–80%

## CC(C)CNC(=O)c1ccc2cc(C(=O)O)ccc2c1 [Compound 52, 6-(Isobutylcarbamoyl)-2-naphthoic acid]
[2]; 100 μM
  inhibition on at least one of the GluN1/GluN2 subtypes: ≥ 50%

## O=C(O)c1cc2cc(/C=C/c3ccccc3)ccc2cc1O [Compound 79a, (E)-3-Hydroxy-7-styryl-2-naphthoic acid]
GluN1/GluN2B NMDAR
  fold greater inhibitory activity on GluN2B compared to 7: ~ 10 fold
[2]; GluN2C and GluN2D, from IC50 values, Table 6
  fold greater inhibitory activity on GluN2C and GluN2D compared to 7: 3–5 fold
[2]; range over GluN2A-D
  maximal inhibition across GluN2A-D: 83–94%

## O=C(O)c1cc2cc(/C=C/c3ccccc3[N+](=O)[O-])ccc2cc1O [Compound 79h, (E)-3-Hydroxy-7-(2-nitrostyryl)-2-naphthoic acid]
GluN1/GluN2A NMDAR [3]; value in parenthesis, ± s.e.m., L-glutamate 10 μM and glycine 10 μM
  percentage maximum inhibition of the agonist response, GluN2A: 30%
GluN1/GluN2B NMDAR
  fold higher IC50 on GluN2B compared to 79a: 4 fold
GluN1/GluN2D NMDAR
  percentage maximum inhibition of the agonist response, GluN2D: 70–80%
[2]; GluN2A and GluN2D
  fold lower IC50 on GluN2A and GluN2D compared to 79a: 3 fold
[2]; range over GluN2B-D
  maximal inhibition of GluN2B-D: 60–80%

## CCCCOc1ccc2cc(C(=O)O)ccc2c1 [Compound 24, 6-Butoxy-2-naphthoic acid]
[2]; 100 μM
  inhibition on at least one of the GluN1/GluN2 subtypes: ≥ 50%
